Results from article PMC4880513 (Journal of natural products, 2015).
Entries after “also recorded” stand apart in the source; their conditions may differ. Where two headings read alike, the source gives them in different places. Marks after values point to notes of the source that are not given here.

Experiments:
[1] = tested on: Male Swiss Webster mice; assay: mouse tetrad assay: overall cannabimimetic action; conditions: ip, result in words
[2] = tested on: Male Swiss Webster mice; assay: mouse tetrad assay: locomotor activity; conditions: for hypolocomotive activity: ip, across doses, result in words; for locomotor activity: total photobeam interruptions, last 10 min of 30 min, mean ± SEM
[3] = target: CB1 receptor (Homo sapiens, UniProt P21554); assay: functional assays at CB1 receptor; assay type: biochemical; conditions: result in words
Sequence of CB1 receptor (P21554 whole entry): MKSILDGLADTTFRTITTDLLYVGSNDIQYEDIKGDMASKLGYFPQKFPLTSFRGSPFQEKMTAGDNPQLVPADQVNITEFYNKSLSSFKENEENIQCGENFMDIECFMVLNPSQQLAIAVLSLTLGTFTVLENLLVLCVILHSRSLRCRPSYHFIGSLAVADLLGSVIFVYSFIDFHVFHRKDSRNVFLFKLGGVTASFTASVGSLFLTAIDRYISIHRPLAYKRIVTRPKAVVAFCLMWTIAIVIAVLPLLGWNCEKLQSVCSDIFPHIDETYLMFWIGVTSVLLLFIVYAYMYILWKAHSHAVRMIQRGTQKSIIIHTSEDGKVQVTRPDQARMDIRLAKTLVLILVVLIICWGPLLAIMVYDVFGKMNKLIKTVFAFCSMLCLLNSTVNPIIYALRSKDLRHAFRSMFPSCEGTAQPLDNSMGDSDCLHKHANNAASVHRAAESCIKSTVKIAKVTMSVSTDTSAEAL

[4] = target: full-length human cannabinoid-2 receptor (Homo sapiens, UniProt P34972); assay: CB2 receptor radioligand binding assay
Sequence of full-length human cannabinoid-2 receptor (P34972 whole entry): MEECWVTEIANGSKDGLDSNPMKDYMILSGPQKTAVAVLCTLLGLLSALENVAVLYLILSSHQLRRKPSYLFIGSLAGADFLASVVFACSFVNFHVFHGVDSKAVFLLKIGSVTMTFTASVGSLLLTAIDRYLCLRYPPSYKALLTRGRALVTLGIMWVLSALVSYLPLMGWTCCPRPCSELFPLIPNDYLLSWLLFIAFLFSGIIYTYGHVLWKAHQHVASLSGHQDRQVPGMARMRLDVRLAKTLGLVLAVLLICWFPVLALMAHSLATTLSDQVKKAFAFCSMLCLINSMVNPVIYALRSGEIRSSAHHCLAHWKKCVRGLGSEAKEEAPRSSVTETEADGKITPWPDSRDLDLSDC

[5] = target: full-length human cannabinoid-1 receptor (Homo sapiens, UniProt P21554); conditions: radioligand binding
Sequence of full-length human cannabinoid-1 receptor (P21554 whole entry): as the sequence (P21554 whole entry) above

[6] = target: CB2 receptor (Homo sapiens, UniProt P34972); assay: functional assays at CB2 receptor; assay type: biochemical; conditions: result in words
Sequence of CB2 receptor (P34972 whole entry): as the sequence (P34972 whole entry) above

[7] = tested on: Male Swiss Webster mice; assay: mouse tetrad assay: rectal temperature; conditions: difference between basal and postinjection temperatures, mean ± SEM
[8] = tested on: Male Swiss Webster mice; assay: mouse tetrad assay: catalepsy; conditions: latency to drop, cutoff 180 s, mean ± SEM
[9] = tested on: Male Swiss Webster mice; assay: mouse tetrad assay: tail-flick latency; conditions: cutoff 15 s, mean ± SEM
[10] = tested on: Male Swiss Webster mice; assay: mouse tetrad assay: hot-plate latency; conditions: cutoff 45 s, mean ± SEM

Molecule: CCCCCc1cc(O)c2c(c1)OC(C)(C)[C@@H]1C[C@H](O)C(C)=C[C@@H]21 [Compound 1, 8α-hydroxy-Δ^9-tetrahydrocannabinol]
- cannabimimetic activity in the mouse tetrad assay ([1]; dose of 20 mg/kg): did not exhibit typical cannabimimetic activity

Molecule: CCCCCc1cc(O)c2c(c1)OC(C)(C)[C@@H]1C[C@@H](O)C(C)=C[C@@H]21 [Compound 2, 8β-hydroxy-Δ^9-tetrahydrocannabinol]
- cannabimimetic-like action in the mouse tetrad assay ([1]; at the doses tested): lacked any cannabimimietic activity
- cannabimimetic-like action in the mouse tetrad assay ([1]; doses up to 20 mg/kg): lacked typical cannabimimetic-like action
- hypolocomotive activity [2]: dose-dependent hypolocomotive effect only
- hypolocomotive activity ([2]; listed as compound 2): significant dose-dependent hypolocomotive activity

Molecule: CCCCCc1cc(O)c2c(c1)OC(C)(C)[C@@H]1CC=C(C)[C@H](O)[C@@H]21 [Compound 3, 10α-hydroxy-Δ^8-tetrahydrocannabinol]
- functional activity at CB1 receptor [3]: partial agonist
- functional activity at CB1 receptor ([3]; listed as compound 3): partial CB1 agonist
- binding affinity (nM) CB2 [4]: nearly as tightly as THC
- binding affinity (nM) CB1 [5]: nearly as tightly as THC
- binding affinity (nM) CB1 ([5]; listed as compound 3): highest affinity
- cannabimimetic-like action in the mouse tetrad assay ([1]; at the doses tested): most potent cannabimimetic-like actions; also recorded: typical cannabimimetic actions
- functional activity at CB2 receptor [6]: partial agonist

Molecule: CCCCCc1cc(O)c2c(c1)OC(C)(C)[C@@H]1CC=C(C)[C@@H](O)[C@@H]21 [Compound 4, 10β-hydroxy-Δ^8-tetrahydrocannabinol]
- effects in the mouse tetrad assay ([1]; 40 mg/kg (highest tested dose), 40 mg/kg): hypothermic and antinociceptive activity
- cannabimimetic-like action in the mouse tetrad assay ([1]; at the doses tested): partial cannabimimetic action

Molecule: CCCCCc1cc(O)c2c(c1)OC(C)(C)[C@@H]1CC[C@@]3(C)O[C@H]3[C@@H]21 [Compound 6, 9β,10β-epoxyhexahydrocannabinol]
- cannabimimetic-like action in the mouse tetrad assay ([1]; at the doses tested): most potent cannabimimetic-like actions

Molecule: CCCCCc1cc(O)c2c(c1)OC(C)(C)[C@@H]1CC=C(C)C[C@@H]21 [Δ^8-THC, Δ^8-tetrahydrocannabinol]
- decrease in rectal temperature (°C) ([7]; 5 mg/kg ip): 0.12 ± 0.09 °C
- decrease in rectal temperature (°C) ([7]; 20 mg/kg ip): 1.96 ± 0.37 ^a °C

Molecule: (−)-trans-Δ^9-tetrahydrocannabinol [Δ^9-THC]
- catalepsy latency ([8]; 10 mg/kg ip): 14.4 ± 4.16 s
- catalepsy latency (s) ([8]; 20 mg/kg ip): 47.9 ± 20.04 ^b s
- catalepsy latency (s) ([8]; 40 mg/kg ip): 37.7 ± 14.64 ^a s
- tail-flick latency (% MPE) ([9]; 10 mg/kg ip): 6.52 ± 2.00 % MPE
- tail-flick latency (% MPE) ([9]; 20 mg/kg ip): 42.21 ± 17.04 ^b % MPE
- tail-flick latency (% MPE) ([9]; 40 mg/kg ip): 51.96 ± 13.22 ^c % MPE
- hot-plate latency (% MPE) ([10]; 10 mg/kg ip): 29.04 ± 5.37 ^c % MPE
- hot-plate latency (% MPE) ([10]; 20 mg/kg ip): 46.85 ± 9.08 ^c % MPE
- hot-plate latency (% MPE) ([10]; 40 mg/kg ip): 38.18 ± 4.05 ^c % MPE
- locomotor activity ([2]; 10 mg/kg ip): 190.9 ± 33.8 ^c
- locomotor activity ([2]; 20 mg/kg ip): 276.2 ± 52.6 ^c
- locomotor activity ([2]; 40 mg/kg ip): 194.0 ± 49.2 ^c
- decrease in rectal temperature (°C) ([7]; 10 mg/kg ip): 2.05 ± 0.25 °C
- decrease in rectal temperature (°C) ([7]; 20 mg/kg ip): 4.25 ± 0.78 ^c °C
- decrease in rectal temperature (°C) ([7]; 40 mg/kg ip): 4.80 ± 0.28 ^c °C
